Measurements reported in ChEMBL document CHEMBL6178017, “Intercepting the Downstream of the Estrogen Receptor Signaling Pathway: Discovery of a Potent and Efficient SRC-3 PROTAC Degrader for Overcoming Endocrine Resistance Breast Cancer” (J Med Chem, 2025).
Activity calls are given as the source filed them. The rule behind the calls is not given here.

Legend:
[1] = target: T1, Protein cereblon/Nuclear receptor coactivator 3 (Homo sapiens, UniProt Q9Y6Q9+Q96SW2); experiment: PROTAC activity at CRBN/SRC-3 in human MCF-7 cells harboring Y537S mutant assessed as induction of SRC-3 degradation measured after 36 hrs by immunoblot analysis; format: cell-based; conditions: MCF7, dose 0.01-10 µM
Target sequence in this assay (Q96SW2 whole entry partner): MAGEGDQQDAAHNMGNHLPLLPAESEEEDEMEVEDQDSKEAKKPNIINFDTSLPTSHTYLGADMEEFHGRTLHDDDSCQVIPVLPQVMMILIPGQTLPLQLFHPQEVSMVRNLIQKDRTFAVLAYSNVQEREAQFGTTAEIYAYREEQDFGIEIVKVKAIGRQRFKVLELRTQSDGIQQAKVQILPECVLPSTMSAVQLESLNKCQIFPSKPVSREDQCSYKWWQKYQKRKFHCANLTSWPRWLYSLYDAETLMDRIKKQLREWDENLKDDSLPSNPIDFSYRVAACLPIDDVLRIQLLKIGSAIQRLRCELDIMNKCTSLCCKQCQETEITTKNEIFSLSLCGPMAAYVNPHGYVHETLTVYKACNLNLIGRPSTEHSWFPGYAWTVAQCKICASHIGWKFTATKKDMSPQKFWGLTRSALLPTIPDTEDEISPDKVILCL
Target sequence in this assay (Q9Y6Q9 2-1424 limits assumed): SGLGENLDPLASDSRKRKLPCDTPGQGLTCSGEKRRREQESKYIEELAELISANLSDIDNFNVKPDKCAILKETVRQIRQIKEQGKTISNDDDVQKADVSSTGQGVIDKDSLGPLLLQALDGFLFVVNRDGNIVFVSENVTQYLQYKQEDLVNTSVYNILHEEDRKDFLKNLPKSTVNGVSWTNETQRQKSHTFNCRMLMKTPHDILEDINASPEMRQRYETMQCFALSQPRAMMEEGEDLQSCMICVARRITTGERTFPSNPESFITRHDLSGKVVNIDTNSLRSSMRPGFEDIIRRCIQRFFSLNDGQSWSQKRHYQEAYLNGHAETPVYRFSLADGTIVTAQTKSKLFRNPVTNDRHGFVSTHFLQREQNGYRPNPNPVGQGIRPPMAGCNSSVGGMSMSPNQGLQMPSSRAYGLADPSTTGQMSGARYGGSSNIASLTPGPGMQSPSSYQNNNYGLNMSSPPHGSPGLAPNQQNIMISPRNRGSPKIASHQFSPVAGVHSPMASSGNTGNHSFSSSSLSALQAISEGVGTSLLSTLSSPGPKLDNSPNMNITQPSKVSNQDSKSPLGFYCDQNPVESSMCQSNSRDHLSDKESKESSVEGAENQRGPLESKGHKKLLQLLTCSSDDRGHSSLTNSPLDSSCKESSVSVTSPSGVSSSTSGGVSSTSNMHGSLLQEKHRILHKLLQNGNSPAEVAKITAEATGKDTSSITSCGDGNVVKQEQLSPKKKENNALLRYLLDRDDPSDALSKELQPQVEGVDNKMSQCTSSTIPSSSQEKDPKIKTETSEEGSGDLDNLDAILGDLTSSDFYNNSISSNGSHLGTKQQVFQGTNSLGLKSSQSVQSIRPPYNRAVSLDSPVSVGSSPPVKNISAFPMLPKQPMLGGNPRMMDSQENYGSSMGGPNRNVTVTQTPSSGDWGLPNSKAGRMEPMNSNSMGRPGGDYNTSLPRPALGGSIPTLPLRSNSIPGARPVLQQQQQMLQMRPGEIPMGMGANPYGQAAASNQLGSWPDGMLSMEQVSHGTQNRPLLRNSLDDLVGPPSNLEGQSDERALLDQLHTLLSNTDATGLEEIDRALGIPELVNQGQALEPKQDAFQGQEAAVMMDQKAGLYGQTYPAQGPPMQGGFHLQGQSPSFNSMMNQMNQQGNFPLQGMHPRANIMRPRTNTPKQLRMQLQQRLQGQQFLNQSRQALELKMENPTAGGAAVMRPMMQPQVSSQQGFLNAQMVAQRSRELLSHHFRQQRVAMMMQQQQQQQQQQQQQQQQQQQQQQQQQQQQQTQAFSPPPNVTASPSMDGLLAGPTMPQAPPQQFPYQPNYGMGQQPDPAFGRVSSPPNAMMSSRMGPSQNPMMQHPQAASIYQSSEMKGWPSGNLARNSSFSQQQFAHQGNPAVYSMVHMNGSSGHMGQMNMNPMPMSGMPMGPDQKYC

[2] = Induction of apoptosis in tamoxifen-resistant human LCC2 cells assessed as late apoptotic cells at 5 uM incubated for 48 hrs by AnnexinV-FITC/PI staining based flow cytometry (reference value: 4.83%); format: functional, Tamoxifen-resistant LCC2 cell
[3] = Induction of cell cycle arrest in tamoxifen-resistant human LCC2 cells assessed as accumulation of cells at S phase at 10 uM incubated for 48 hrs by propidium iodide staining based flow cytometry (reference value: 9.72%); format: functional
[4] = target: T1, Protein cereblon/Nuclear receptor coactivator 3; experiment: PROTAC activity at CRBN/SRC-3 in human MCF7 cells overexpressing EGFR assessed as induction of SRC-3 degradation measured after 36 hrs by immunoblot analysis; format: cell-based; conditions: dose 0.01-10 µM
Target sequence in this assay (Q96SW2 whole entry partner): as the sequence (Q96SW2 whole entry partner) above
Target sequence in this assay (Q9Y6Q9 2-1424 limits assumed): as the sequence (Q9Y6Q9 2-1424 limits assumed) above

Cytochrome P450 3A4 = Cytochrome P450 3A4 (Homo sapiens, UniProt P08684); experiment: Inhibition of CYP3A4(unknown origin) using testosterone as substrate; format: ADME
[5] = Hepatic clearance in human liver microsomes in presence of NADPH by LC-MS/MS analysis; format: ADME, Microsome
[6] = Induction of apoptosis in tamoxifen-resistant human LCC2 cells assessed as early apoptotic cells at 5 uM incubated for 48 hrs by AnnexinV-FITC/PI staining based flow cytometry (reference value: 5.92%); format: functional, Tamoxifen-resistant LCC2 cell
[7] = target: T1, Protein cereblon/Nuclear receptor coactivator 3; experiment: PROTAC activity at CRBN/SRC-3 in human MCF7 cells assessed as induction of SRC-3 degradation incubated for 24 hrs by immunoblot analysis; format: cell-based; conditions: dose 0.1-10 µM
Target sequence in this assay (Q96SW2 whole entry partner): as the sequence (Q96SW2 whole entry partner) above
Target sequence in this assay (Q9Y6Q9 2-1424 limits assumed): as the sequence (Q9Y6Q9 2-1424 limits assumed) above

[8] = target: T1, Protein cereblon/Nuclear receptor coactivator 3; experiment: PROTAC activity at CRBN/SRC-3 in human MCF7 cells harboring ER-alpha D538G mutant assessed as downregulation of ER-alpha level at 0.01 to 10 uM measured after 36 hrs by immunoblot analysis; format: cell-based; conditions: dose 0.01-10 µM
Target sequence in this assay (Q96SW2 whole entry partner): as the sequence (Q96SW2 whole entry partner) above
Target sequence in this assay (Q9Y6Q9 2-1424 limits assumed): as the sequence (Q9Y6Q9 2-1424 limits assumed) above

[9] = Toxicity against Balb/c mouse xenografted with tamoxifen-resistant human LCC2 cells assessed as effect on lung pathological changes at 3 to 5 uM/Kg, ip administered once every 2 days for 23 days and measured on day 25 by Hematoxylin-Eosin based […] staining analysis; format: organism-based; conditions: in vivo, 600 h, dose 3-5 µM/Kg, time 25 day
[10] = Induction of apoptosis in tamoxifen-resistant human LCC2 cells assessed as late apoptotic cells at 10 uM incubated for 48 hrs by AnnexinV-FITC/PI staining based flow cytometry (reference value: 4.83%); format: functional, Tamoxifen-resistant LCC2 cell
MCF7 = experiment: Induction of apoptosis in human MCF7 cells assessed as increase in early apoptotic cells at 1 to 20 uM incubated for 48 hrs by AnnexinV-FITC/PI staining based flow cytometry; format: functional, cell-based; conditions: dose 1-20 µM
[11] = Induction of cell cycle arrest in tamoxifen-resistant human LCC2 cells assessed as accumulation of cells at G1 phase at 10 uM incubated for 48 hrs by propidium iodide staining based flow cytometry (reference value: 78.71%); format: functional
[12] = AUC (0 to t) in Balb/c mouse at 20 mg/kg, po by LC-MS/MS analysis; format: ADME, organism-based; conditions: in vivo
[13] = Induction of cell cycle arrest in tamoxifen-resistant human LCC2 cells assessed as accumulation of cells at G1 phase at 5 uM incubated for 48 hrs by propidium iodide staining based flow cytometry (reference value: 78.71%); format: functional
[14] = Tmax in Balb/c mouse at 20 mg/kg, po by LC-MS/MS analysis; format: ADME, organism-based; conditions: in vivo
[15] = target: T1, Protein cereblon/Nuclear receptor coactivator 3; experiment: PROTAC activity at CRBN/SRC-3 in human MCF7 cells assessed as induction of SRC-3 degradation incubated for 36 hrs by immunoblot analysis; format: cell-based
Target sequence in this assay (Q9Y6Q9 whole entry): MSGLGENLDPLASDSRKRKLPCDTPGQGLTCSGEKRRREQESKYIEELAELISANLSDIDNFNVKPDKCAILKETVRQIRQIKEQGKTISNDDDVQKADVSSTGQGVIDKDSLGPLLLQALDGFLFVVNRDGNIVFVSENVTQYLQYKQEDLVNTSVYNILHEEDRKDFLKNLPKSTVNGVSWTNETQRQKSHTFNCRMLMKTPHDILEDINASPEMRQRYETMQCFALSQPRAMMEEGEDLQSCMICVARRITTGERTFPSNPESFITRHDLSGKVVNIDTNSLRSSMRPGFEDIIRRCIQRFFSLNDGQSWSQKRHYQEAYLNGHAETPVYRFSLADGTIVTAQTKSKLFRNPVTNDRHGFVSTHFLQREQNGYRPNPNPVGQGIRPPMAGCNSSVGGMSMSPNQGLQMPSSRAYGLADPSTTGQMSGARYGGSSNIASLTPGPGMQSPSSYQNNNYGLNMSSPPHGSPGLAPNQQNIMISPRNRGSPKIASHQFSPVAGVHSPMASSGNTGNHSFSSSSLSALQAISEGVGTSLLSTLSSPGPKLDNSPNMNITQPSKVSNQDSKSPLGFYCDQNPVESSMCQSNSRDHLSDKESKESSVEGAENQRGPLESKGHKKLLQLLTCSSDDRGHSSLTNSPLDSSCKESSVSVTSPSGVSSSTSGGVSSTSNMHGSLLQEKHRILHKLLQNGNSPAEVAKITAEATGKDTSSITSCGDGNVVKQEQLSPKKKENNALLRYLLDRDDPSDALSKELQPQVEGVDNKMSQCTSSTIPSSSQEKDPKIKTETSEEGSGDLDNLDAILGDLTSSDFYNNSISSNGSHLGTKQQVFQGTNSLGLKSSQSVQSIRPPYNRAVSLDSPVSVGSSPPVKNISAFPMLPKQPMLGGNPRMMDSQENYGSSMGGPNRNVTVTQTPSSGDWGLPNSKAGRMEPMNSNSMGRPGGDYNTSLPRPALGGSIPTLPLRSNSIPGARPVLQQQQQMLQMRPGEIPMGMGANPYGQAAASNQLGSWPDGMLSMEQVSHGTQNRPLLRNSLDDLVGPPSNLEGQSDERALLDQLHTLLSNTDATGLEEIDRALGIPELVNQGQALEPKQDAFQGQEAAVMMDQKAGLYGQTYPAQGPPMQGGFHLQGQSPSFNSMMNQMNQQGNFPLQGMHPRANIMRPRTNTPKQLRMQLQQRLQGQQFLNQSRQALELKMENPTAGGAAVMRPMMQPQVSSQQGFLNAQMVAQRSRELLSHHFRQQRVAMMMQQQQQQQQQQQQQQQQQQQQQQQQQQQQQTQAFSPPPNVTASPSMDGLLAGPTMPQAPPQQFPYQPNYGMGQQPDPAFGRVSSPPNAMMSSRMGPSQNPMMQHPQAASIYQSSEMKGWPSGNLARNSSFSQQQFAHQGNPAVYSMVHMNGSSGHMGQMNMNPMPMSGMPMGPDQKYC
Target sequence in this assay (Q96SW2 whole entry): as the sequence (Q96SW2 whole entry partner) above

[16] = Induction of apoptosis in tamoxifen-resistant human LCC2 cells assessed as late apoptotic cells at 1 uM incubated for 48 hrs by AnnexinV-FITC/PI staining based flow cytometry (reference value: 4.83%); format: functional, Tamoxifen-resistant LCC2 cell
[17] = target: T1, Protein cereblon/Nuclear receptor coactivator 3; experiment: PROTAC activity at CRBN/SRC-3 in tamoxifen-resistant human LCC2 cells assessed as degradation of SRC-3 at 10 uM measured after 36 hrs by diaPASEF-based quantitative proteomics analysis relative to control; conditions: Tamoxifen-resistant LCC2 cell
Target sequence in this assay (Q96SW2 whole entry partner): as above
Target sequence in this assay (Q9Y6Q9 2-1424 limits assumed): as the sequence (Q9Y6Q9 2-1424 limits assumed) above

Mus musculus = experiment: In vivo PROTAC activity at CRBN/SRC-3 in Balb/c mouse xenografted with tamoxifen-resistant human LCC2 cells assessed as downregulation of ER-alpha protein level in tumor tissues at 5 uM/Kg, ip administered once every 2 days for 23 days and measured on day 25 by western blot analysis; format: functional, organism-based; conditions: time 25.0 day
[18] = Half life in Balb/c mouse at 2 mg/kg, iv by LC-MS/MS analysis; format: ADME, organism-based; conditions: in vivo
[19] = target: Cereblon/Ikaros (Homo sapiens) (UniProt Q96SW2+Q13422); experiment: PROTAC activity at CRBN/IKZF1 in tamoxifen-resistant human LCC2 cells assessed as degradation of IKZF1 at 10 uM measured after 36 hrs by diaPASEF-based quantitative proteomics analysis; conditions: Tamoxifen-resistant LCC2 cell
[20] = Antitumor activity against tamoxifen-resistant human LCC2 cells xenografted in Balb/c mouse assessed as inhibition of tumor growth at 5 uM/Kg, ip administered once every 2 days for 23 days; format: functional, Tamoxifen-resistant LCC2 cell; conditions: time 23 day, at 5 µmol/kg

Cytochrome P450 3A4, sequence (P08684 whole entry): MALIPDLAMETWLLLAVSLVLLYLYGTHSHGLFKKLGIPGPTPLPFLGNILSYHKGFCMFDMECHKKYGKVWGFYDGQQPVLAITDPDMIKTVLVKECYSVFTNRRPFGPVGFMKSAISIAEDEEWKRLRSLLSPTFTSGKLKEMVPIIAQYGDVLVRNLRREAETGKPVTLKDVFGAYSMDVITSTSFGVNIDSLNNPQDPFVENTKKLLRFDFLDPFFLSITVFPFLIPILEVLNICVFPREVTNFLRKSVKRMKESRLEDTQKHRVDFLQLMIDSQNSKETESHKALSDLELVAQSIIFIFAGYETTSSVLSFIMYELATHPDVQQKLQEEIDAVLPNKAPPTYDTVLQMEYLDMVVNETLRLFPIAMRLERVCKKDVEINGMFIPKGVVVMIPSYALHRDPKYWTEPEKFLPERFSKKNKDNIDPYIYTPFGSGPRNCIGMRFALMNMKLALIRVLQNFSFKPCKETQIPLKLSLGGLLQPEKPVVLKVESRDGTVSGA

C/C(=N\Nc1nc2ccccc2n1C1CN(C2CCN(c3cccc4c3C(=O)N(C3CCC(=O)NC3=O)C4=O)CC2)C1)c1ccccn1 (stereo not drawn)
Activity [1]: Dose-dependent-effect | Activity [2]: 24.79% | Activity [3]: 12.41% | Activity [4]: Dose-dependent-effect | IC50 (Cytochrome P450 3A4): 2730 nM | CLhep predicted [5]: 18.7 mL/min/kg | Activity [6]: 10.14% | Activity [7]: Dose-dependent-effect | Activity [8]: Active | Activity [9]: Non-toxic | Activity [10]: 20.48% | Activity (MCF7): Active | Activity [11]: 85.01% | AUC(0-t) [12]: 47.1 ng·h/mL | Activity [13]: 81.41% | Tmax [14]: 19.8 min | DC50 [15]: 31 nM | Activity [16]: 21.9% | log2FC [17]: 0.25 | Activity (Mus musculus): Active | half-life [18]: 206 min | Activity [19]: inactive | TGI [20]: 54%
